From paper PMC7076013 (Scientific Reports, 2020) come the findings set out here.

Common to all, as to format: cell-based, human
The subject of assay [1] is A375 cells. Briefly: Fluorescence microscopy of DAPI-stained cells, A375. The conditions noted are these: A375, 72 h. On the procedure:
(§1) It was observed that the wound in the control of the A375 cells decreased from 172 ± 69 μm to 127 ± 13 μm, compared to the treated cells where it stayed at 177 ± 32 μm. […] (Fig. 10A).To confirm this, the cell proliferation rate was determined after 72 h of incubation in the presence of 5 of the carboxyfluorescein succinimidyl ester (CFSE)-stained cells. […] These findings were further confirmed by fluorescence microscopy of 4′,6-diamidino-2-phenylindole (DAPI)-stained cells (Fig. 10C), for which predominantly large nuclei with scarce nucleoli characteristic for interphase were observed on treatment of A375 cells with 5[60]. In addition, sporadic oblong nuclei with condensed chromatin, typical for apoptosis, were also observed (25 ± 9%). On the other hand in the DAPI-stained 518A2 cells typical apoptotic shrunken nuclei and apoptotic bodies were dominant (60 ± 2%)[61]. The different modes of action on the two melanoma cell lines indicate that cell specific characteristics define the outcome of the treatment with 5. […] Recent data on the compensatory proliferation in response to induced apoptotic cell death in the tumor tissue even favor a nonaggressive approach in the therapy of advanced malignancy.

Assay [2] deals with 518A2 cells. Briefly: Intracellular ROS/RNS (DHR), 518A2. Conditions: 518A2, 48 h; untreated 70.7 ± 5.5. On the procedure:
(§2) Given that analogue 5 is designed for NO release, the intracellular release of nitric oxide and production of reactive oxygen species (ROS)/reactive nitrogen species (RNS) was measured by means of redox-sensitive dyes — 4-amino-5-methylamino-2′,7′-difluorofluorescein diacetate (DAF) and dihydrorhodamine-123 (DHR) — after exposure for 48 h (Fig. 11). […] It is well documented that highly intensified production of ROS/RNS is connected with extreme cell damage and consequent cell death, whereas moderate ROS production is involved in the regulation of intracellular processes often involved in cell cycle arrest, proliferation, and differentiation[63],[64]. Apart from the moderate intracellular NO release, it was important to evaluate whether 5 released NO extracellularly. The production of NO from a nitrate group is a three-electron reduction process that can happen by a number of possible 2e^– and 1e^– pathways, commonly involving the initial liberation of a nitrite. A common method of detecting the release of NO in the extracellular compartment is the detection of nitrite ions by the Griess reaction, which quantifies the nitrite resulting from the oxidation of NO[66],[67]. […] Introduction of a nitrate moiety was also found to be beneficial in the case of rofecoxib. […]

Assay [3] deals with 518A2 cells. The experiment in a line: Fluorescence microscopy of DAPI-stained cells, 518A2. Conditions: 518A2, 72 h. On the procedure: as §1
For assay [4], the system named is A375 cells. The experiment in a line: Ann/PI double staining apoptosis, A375. On the procedure: (§3) The results were ex pressed as a p er centage of a v alue obtained for the untr eated control cells that was arbitrarily set to be 100%. A non- linear regression analysis of obtained results was done b y using Gr aphPad Prism software to calculat e IC50 values.
3.3. AnnexinV-FITC/P I and caspase det ection. […]
C ells were anal yz ed b y
C yFlow® Space Part ec u sing the PartecFloM ax ® software.
(§4) 3.4. Cell staining with CFSE.
(§5) To quantify cell division rate, cells were incubated for 10 min at 37 °C in the presence of […]
(§6) subsequentl y quantified using flow c ytomet r y.
(§7) Cell motilit y and proliferation was anal yz ed using wound healing assa y. A375 and 518A2 cells were cultivated in 6-well plates until 80% of confluence in monola yers w as reached. Th e scratch was made using a steri le pipette tip which was drawn across the center of the wells. The scratch ed cell la yers w ere wash ed twice with fres h PBS to remove loose or damaged cells. Cells […]
(§8) 4% paraformald eh yde (PFA) for 10 min at room temperature . The wounds were digitally photographed using a Ni kon inverted microscope TS2 with 5 MPIX cam era.
(§9) 3.6. Measurement of intracellular nitric oxide

For assay [5], the system named is A375 cells. Briefly: CFSE cell proliferation, A375. The conditions noted are these: A375, 72 h. On the procedure: as §1, with “malignancy. […]” for “malignancy.”
as §5
(§10) subsequentl y quantified using flow c ytomet r y. […]

Assay [6] concerns 518A2 cells. The experiment in a line: Intracellular NO (DAF), 518A2. The conditions noted are these: 518A2, 48 h; untreated 44.9 ± 5.9. On the procedure: as §2
In assay [7] the test system is A375 cells. Briefly: Intracellular ROS/RNS (DHR), A375. Conditions: A375, 48 h; untreated 22.3 ± 5. On the procedure:
as §2

Assay [8] has as its system 518A2 cells. Briefly: Ann/PI apoptosis and caspase activation, 518A2. Conditions: 518A2, 48 h.
In assay [9] the test system is A375 cells. The experiment in a line: Intracellular NO (DAF), A375. Conditions: A375, 48 h; untreated 40 ± 7. On the procedure:
as §2

Assay [10] deals with 518A2 cells. The experiment in a line: Scratch (wound healing) test, 518A2. The conditions noted are these: 518A2, IC50 dose, 48 h. On the procedure: as §1, with “malignancy. […]” for “malignancy.”
as §5, §10

For assay [11], the system named is A375 cells. Briefly: Scratch (wound healing) test, A375. The conditions noted are these: A375, treated cells, IC50 dose, 48 h; control decreased from 172 ± 69 to 127 ± 13. On the procedure: as §1, with “malignancy. […]” for “malignancy.”
as §5, §10

In assay [12] the test system is A375 cells. Briefly: Caspase activation (ApoStat), A375. The conditions noted are these: A375, 48 h. On the procedure: as §3
3.3. AnnexinV-FITC/P I and caspase det ection.
A375 cells were treated with 5 for 48 h, trypsinized, and stained with AnnexinV-FITC (Ann) or propidium iodide (PI), or apostat as proposed by the manufacturer. C ells were anal yz ed b y C yFlow® Space Part ec u sing the PartecFloM ax ® software.
as §4, §5, §6, §7, §8, §9

On to “4-[4-(methylnitrooxy)phenyl]-3-(1,2-dicarba-closo-dodecaboranyl)furan-2(5 H)-one [Compound 5]”, for which the “oblong nuclei with condensed chromatin, typical for apoptosis (DAPI)” value in the assay with A375 cells [1] worked out at 25 ± 9%. For the same substance, the “ROS/RNS production, mean fluorescence (DHR)” value with 518A2 cells [2] came to 65.6 ± 0.9; with A375 cells [7], 32.67 ± 8. Moreover, the “apoptotic shrunken nuclei and apoptotic bodies (DAPI)” value in the assay with 518A2 cells [3] worked out at 60 ± 2%. Also, the “apoptosis (Ann/PI)” value with A375 cells [4] (A375, 48 h) is “did not promote significant apoptosis”. The “apoptosis after prolonged incubation” value with A375 cells [4] (A375, 72 h total) is given as “not accompanied by the appearance of apoptotic cells”. In the assay on A375 cells [5], the “elevation of % of undivided cells (CFSE) vs control” value is given as 38 ± 8%. The “intracellular NO, mean fluorescence (DAF)” value with 518A2 cells [6] is given as 97.7 ± 1.2; in the assay with A375 cells [9], 60.5 ± 9.1. The “apoptosis (Ann/PI, caspase)” value in the assay on 518A2 cells [8] is “strong caspase-dependent apoptosis”. Moreover, the “wound in scratch test” value in the assay on 518A2 cells [10] is listed as “impossible to distinguish the edges of the wound”. In addition, the “wound width in scratch test” value with A375 cells [11] is 177 ± 32 μm. Also, the “total caspase activity (ApoStat)” value in the assay with A375 cells [12] is given as “only a slight enhancement of total caspase activity”.
